Experiments:
[1] = target: T1, P-gp (ABCB1) (Homo sapiens, UniProt P08183); test: Activation of human P-gp expressed in high five insect cell membrane vesicles by measuring the vanadate-sensitive ATPase activity of P-gp at 0.5 uM preincubated for 5 mins in the presence of sodium orthovanadate measured after 20 mins by colorimetric method; conditions: read-out: Activity
[2] = target: T1, P-gp (ABCB1); test: Activation of human P-gp expressed in high five insect cell membrane vesicles by measuring the vanadate-sensitive ATPase activity of P-gp at 0.05 uM preincubated for 5 mins in the presence of sodium orthovanadate measured after 20 mins by colorimetric method; conditions: read-out: Activity
[3] = target: T1, P-gp (ABCB1); test: Activation of human P-gp expressed in high five insect cell membrane vesicles by measuring the vanadate-sensitive ATPase activity of P-gp at 2.5 uM preincubated for 5 mins in the presence of sodium orthovanadate measured after 20 mins by colorimetric method; conditions: read-out: Activity
[4] = target: T1, P-gp (ABCB1); test: Inhibition of human P-gp expressed in high five insect cell membrane vesicles by measuring the vanadate-sensitive ATPase activity of P-gp at 2.5 uM preincubated for 5 mins in the presence of sodium orthovanadate measured after 20 mins by colorimetric method
[5] = target: T1, P-gp (ABCB1); test: Inhibition of human P-gp expressed in high five insect cell membrane vesicles by measuring the vanadate-sensitive ATPase activity of P-gp at 0.5 uM preincubated for 5 mins in the presence of sodium orthovanadate measured after 20 mins by colorimetric method

T1 sequence (P08183 whole entry): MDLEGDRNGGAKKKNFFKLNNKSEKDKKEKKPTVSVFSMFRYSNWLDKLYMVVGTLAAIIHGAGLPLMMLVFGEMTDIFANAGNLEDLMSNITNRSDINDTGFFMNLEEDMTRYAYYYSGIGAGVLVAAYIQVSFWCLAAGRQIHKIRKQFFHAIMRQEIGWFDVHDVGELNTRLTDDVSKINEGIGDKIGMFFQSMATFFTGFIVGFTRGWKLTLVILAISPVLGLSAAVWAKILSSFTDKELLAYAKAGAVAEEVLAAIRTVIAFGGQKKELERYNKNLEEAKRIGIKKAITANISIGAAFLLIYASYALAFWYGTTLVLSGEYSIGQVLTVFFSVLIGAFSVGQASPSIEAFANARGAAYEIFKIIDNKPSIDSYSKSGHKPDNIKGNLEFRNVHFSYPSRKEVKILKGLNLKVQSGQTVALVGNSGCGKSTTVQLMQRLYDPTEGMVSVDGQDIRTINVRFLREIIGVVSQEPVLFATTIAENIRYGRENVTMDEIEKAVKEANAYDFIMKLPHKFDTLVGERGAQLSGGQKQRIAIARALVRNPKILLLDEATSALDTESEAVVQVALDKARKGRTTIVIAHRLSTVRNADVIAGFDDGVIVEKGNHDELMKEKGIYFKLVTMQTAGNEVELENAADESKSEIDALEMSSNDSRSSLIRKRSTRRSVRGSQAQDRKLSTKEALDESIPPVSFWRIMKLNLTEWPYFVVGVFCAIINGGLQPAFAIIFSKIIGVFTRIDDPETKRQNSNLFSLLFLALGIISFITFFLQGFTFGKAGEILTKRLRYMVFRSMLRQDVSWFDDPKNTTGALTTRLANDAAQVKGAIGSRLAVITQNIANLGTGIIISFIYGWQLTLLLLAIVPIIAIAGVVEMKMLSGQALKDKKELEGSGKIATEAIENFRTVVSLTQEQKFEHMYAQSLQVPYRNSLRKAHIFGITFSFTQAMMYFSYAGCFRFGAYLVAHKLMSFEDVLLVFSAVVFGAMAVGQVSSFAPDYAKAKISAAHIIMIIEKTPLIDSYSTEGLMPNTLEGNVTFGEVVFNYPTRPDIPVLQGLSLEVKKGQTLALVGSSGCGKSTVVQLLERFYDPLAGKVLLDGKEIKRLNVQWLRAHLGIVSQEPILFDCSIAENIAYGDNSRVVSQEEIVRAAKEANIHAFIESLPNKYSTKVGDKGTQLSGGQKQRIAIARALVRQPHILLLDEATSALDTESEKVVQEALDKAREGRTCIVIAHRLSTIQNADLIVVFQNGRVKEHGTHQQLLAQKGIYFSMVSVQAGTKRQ

SMILES	activity at 20 min, 0.5 µM [1] [%]	activity at 20 min, 0.05 µM [2] [%]	activity at 20 min, 2.5 µM [3] [%]	inhibition at 20 min, 2.5 µM [4] [%]	inhibition at 20 min, 0.5 µM [5] [%]
COc1cc(C(=O)N[C@H](c2nc(C(=S)NC3CCCCC3)cs2)C(C)C)cc(OC)c1OC	≤ 10	–	27	–	–
COc1cc(C(=O)NC(c2nc(C(=O)NC3CCC(C(F)(F)F)CC3)cs2)C(C)C)cc(OC)c1OC (stereo not drawn)	≤ 10	–	–	21.7	–
COc1cc(C(=O)N[C@H](c2nc(C(=O)NC34CC5CC(CC(C5)C3)C4)cs2)C(C)C)cc(OC)c1OC	≤ 10	≤ 10	–	–	–
COc1cc(C(=O)NC(Cc2ccc(O)cc2)c2nc(C(=O)NC3CCC(F)(F)CC3)cs2)cc(OC)c1OC (stereo not drawn)	–	–	–	23	22.4
CC(C)[C@H](NC(=O)C1CCC(F)(F)CC1)c1nc(C(=O)NC2CCC(F)(F)CC2)cs1	≤ 10	–	–	16.4	–
COc1cc(C(=O)N[C@H](c2nc(C(=O)NCC3CCC(F)(F)CC3)cs2)C(C)C)cc(OC)c1OC	–	–	20.7	–	27
COc1cc(C(=O)N[C@H](c2nc(C(=S)NC3CCC(F)(F)CC3)cs2)C(C)C)cc(OC)c1OC	–	–	–	25.9	37.4
COc1cc(C(=O)N[C@H](c2nc(C(=O)N3CCC(N4CCCCC4)CC3)cs2)C(C)C)cc(OC)c1OC	37.2	–	47.2	–	–
COc1cc(C(=O)N[C@H](c2nc(C(=O)N3CCC(F)(F)CC3)cs2)C(C)C)cc(OC)c1OC	40.9	–	55.9	–	–
COc1cc(C(=O)N[C@H](c2nc(C(=O)N3CCC(C(F)(F)F)CC3)cs2)C(C)C)cc(OC)c1OC	13.3	–	75.6	–	–

More lines, now with the values ahead:

activity at 20 min, 0.5 µM [1] [%]	activity at 20 min, 0.05 µM [2] [%]	activity at 20 min, 2.5 µM [3] [%]	inhibition at 20 min, 2.5 µM [4] [%]	inhibition at 20 min, 0.5 µM [5] [%]	SMILES
52	≤ 10	–	–	–	COc1cc(C(=O)N[C@H](c2nc(C(=O)Nc3ccccc3NC(=O)c3ccccc3)cs2)C(C)C)cc(OC)c1OC
112	15	–	–	–	COc1cc(C(=O)N[C@H](c2nc(C(=O)Nc3ccccc3Cc3ccccc3)cs2)C(C)C)cc(OC)c1OC
≤ 10	≤ 10	–	–	–	COc1cc(C(=O)N[C@H](c2nc(C(=O)NC3CC3)cs2)C(C)C)cc(OC)c1OC
59.5	–	244	–	–	COc1cc(C(=O)N[C@H](c2nc(C(=O)Nc3ccc(F)cc3)cs2)C(C)C)cc(OC)c1OC
17.1	–	83	–	–	COc1cc(C(=O)N[C@H](c2nc(C(=O)NC3CCN(c4ncccn4)CC3)cs2)C(C)C)cc(OC)c1OC
149	309	–	–	–	COc1cc(C(=O)N[C@H](c2nc(C(=O)Nc3ccccc3C(=O)c3ccc(Br)cc3)cs2)C(C)C)cc(OC)c1OC
108	–	123	–	–	COc1cc(C(=O)N[C@H](c2nc(C(=O)N[C@H]3CCCc4ccccc43)cs2)C(C)C)cc(OC)c1OC
17.1	–	77.3	–	–	COc1cc(C(=O)N[C@H](c2nc(C(=O)NCCCC(F)(F)F)cs2)C(C)C)cc(OC)c1OC
46	≤ 10	–	–	–	COc1cc(NC(=O)c2csc([C@@H](NC(=O)c3ccccc3C(=O)c3ccccc3)C(C)C)n2)cc(OC)c1OC

Reference: ChEMBL document CHEMBL4024781, “Comprehensive Synthesis of Amino Acid-Derived Thiazole Peptidomimetic Analogues to Understand the Enigmatic Drug/Substrate-Binding Site of P-Glycoprotein” (J Med Chem, 2018)
